{
  "source": "patent US6818203B2",
  "about": "“Use of perfluoroalkyl-containing metal complexes as contrast media in MR-imaging for visualization of plaque, tumors and necroses” (Schering Aktiengesellschaft, priority 2000, dated 2004)",
  "key": {"[1]": {"test": "critical micelle formation concentration (CMC) by tensiometry", "assay_type": "physicochemical", "experimental": "In aqueous systems, these amphiphilic molecules show the properties that are characteristic of standard surfactants (such as, e.g., sodium dodecylsulfate, SDS). They thus reduce the surface tension of water. By tensiometry, the so-called CMC (critical micelle formation concentration in mol/l) can be determined. In this respect, the surface tension is determined based on the concentration of the substance to be measured. The CMC can be calculated from the plot of the surface tension function (c) that is obtained. The critical micelle formation concentration of the compounds according to the invention must be <10^−3 mol/l, preferably <10^−4 mol/l.\n(§1) Both the determination of the CMC and the photon correlation spectroscopy are described in H.-D. Dörfler, “Grenzflächen- und Kolloidchemie [Interface and Colloid Chemistry],” Weinheim, New York, Basel, Cambridge, Tokyo, VSH 1994."}, "[2]": {"test": "hydrodynamic micelle diameter (2 Rh) by photon correlation spectroscopy (PCS)", "assay_type": "physicochemical", "description": "The amphiphilic compounds according to the invention are combined in solution and are present as aggregates. The size (2 Rh) of such aggregates (e.g., micelles, rods, wafers, etc.) can be determined with the aid of […] (PCS).\nAs a second criterion, the hydrodynamic micelle diameter 2 Rh, which must be >1 nm, is therefore used. Those perfluoroalkyl-containing metal complexes according to the invention whose 2 RH is ≧3, quite especially preferably >4 nm, are especially suitable.\nas §1"}, "myocardial infarction": {"tested_on": "myocardial infarction", "test": "infarction visualization (MRT) after intravenous administration in rats with acutely induced myocardial infarction", "assay_type": "in vivo", "description": "The successful induction of an acute myocardial infarction was confirmed by means of NBT-staining."}, "iliac lymph nodes": {"tested_on": "iliac lymph nodes", "test": "lymph node visualization (MRT) after intravenous administration in VX2-tumor-bearing rabbits", "assay_type": "in vivo", "details": "200 μmol of Gd/kg i.v.; for signal in zones within the lymph node diagnosed as metastases (confirmed histologically): early images", "experimental": "The pictures of FIG. 6 show MR images of an iliac lymph node and of a primary tumor (VX2-tumor implanted i.m.) precontrast, 60 minutes and 20 hours after intravenous administration of 100 μmol of Gd/kg of body weight of metal complex I in rabbits. […] The enhancement in the healthy lymph node tissue was 382% at the time of 15 minutes p.i. and 419% at the time of 60 minutes p.i. […] The ratio of signal intensities of healthy lymph node tissue to metastasis was 3.0 at the time of 15 minutes p.i. and 3.4 at the time of 60 minutes p.i. […] The enhancement in the healthy lymph node tissue was 246% at the time of 15 minutes p.i. and 282% at the time of 60 minutes p.i. […] The ratio of signal intensities of healthy lymph node tissue to metastasis was 2.5 at the time of 15 minutes p.i. and 1.7 at the time of 60 minutes p.i. […] The enhancement in the healthy lymph node tissue was 297% at the time of 10 minutes p.i. and 269% at the time of 60 minutes p.i. […] The ratio of signal intensities of healthy lymph node tissue to metastasis was 5.1 at the time of 10 minutes p.i. and 1.9 at the time of 60 minutes p.i. […] The enhancement in the healthy lymph node tissue was 195% at the time of 15 minutes p.i. and 233% at the time of 60 minutes p.i. […] The ratio of signal intensities of healthy lymph node tissue to metastasis was 1.9 at the time of 15 minutes p.i. and 1.8 at the time of 60 minutes p.i."}, "[3]": {"tested_on": "primary tumor (VX2-tumor implanted i.m.)", "test": "tumor visualization (MRT) after intravenous administration in VX2-tumor-bearing rabbits", "assay_type": "in vivo", "details": "200 μmol of Gd/kg i.v.; for enhancement of the primary tumor (especially the periphery): 15 minutes p.i.", "experimental": "The pictures of FIG. 6 show MR images of an iliac lymph node and of a primary tumor (VX2-tumor implanted i.m.) precontrast, 60 minutes and 20 hours after intravenous administration of 100 μmol of Gd/kg of body weight of metal complex I in rabbits. […]"}, "[4]": {"test": "organ distribution (including lymph node concentration) after intravenous administration in rats", "assay_type": "in vivo", "details": "24 hours after administration, 200 μmol Gd/kg i.v.", "experimental": "(§2) After intravenous administration of 100 μmol of total gadolinium/kg of body weight of a polar Gd-chelate with perfluorinated side chains (metal complex X) in rats, the metal content in various organs as well as in the lymph nodes (pooled as mesenteric and peripheral lymph nodes) was determined 24 hours after administration (MW, n=2).\nas §2, with “200” for “100”, “V)” for “X)”\nas §2, with “200” for “100”, “III)” for “X)”"}},
  "data": [
    {"smiles": "CC(C(=O)NCC(=O)N(CCOCCC(F)(F)C(F)(F)C(F)(F)C(F)(F)C(F)(F)C(F)(F)C(F)(F)C(F)(F)F)CC(O)CO)N1CCN(CC(=O)[O-])CCN(CC(=O)[O-])CCN(CC(=O)[O-])CC1.[Gd+3]", "note": "(centres unmarked) [metal complex V]", "values": [
      {"measurement": "CMC (critical micelle formation concentration)", "setting": "[1]", "value": "3.9e-06", "unit": "mol/L"},
      {"measurement": "2 Rh (hydrodynamic micelle diameter)", "setting": "[2]", "value": 4.4, "unit": "nm"},
      {"measurement": "signal in the infarction area (T1-weighted spin-echo images)", "setting": "myocardial infarction; 24 hours after i.v. 100 μmol of Gd/kg", "value": "strong signal rise"},
      {"measurement": "signal in healthy lymph node tissue (T1-weighted gradient-echo images)", "setting": "iliac lymph nodes", "value": "strong signal rise"},
      {"measurement": "enhancement in the healthy lymph node tissue", "setting": "iliac lymph nodes; 15 minutes p.i.", "value": 246, "unit": "%"},
      {"measurement": "ratio of signal intensities of healthy lymph node tissue to metastasis", "setting": "iliac lymph nodes; 15 minutes p.i.", "value": 2.5},
      {"measurement": "enhancement in the healthy lymph node tissue", "setting": "iliac lymph nodes; 60 minutes p.i.", "value": 282, "unit": "%"},
      {"measurement": "ratio of signal intensities of healthy lymph node tissue to metastasis", "setting": "iliac lymph nodes; 60 minutes p.i.", "value": 1.7},
      {"measurement": "signal in zones within the lymph node diagnosed as metastases (confirmed histologically)", "setting": "iliac lymph nodes", "value": "without signal rise"},
      {"measurement": "enhancement of the primary tumor (especially the periphery)", "setting": "[3]", "value": 350, "unit": "%"},
      {"measurement": "enhancement of the primary tumor (center of the tumor)", "setting": "[3]; 24 hours p.i.", "value": 106, "unit": "%"},
      {"measurement": "metal content", "setting": "[4]; Blood", "value": 15, "unit": "μmol Gd/L"},
      {"measurement": "metal content, % Dose", "setting": "[4]; Blood", "value": 0.18, "unit": "% Dose"},
      {"measurement": "metal content", "setting": "[4]; Brain", "value": 4, "unit": "μmol Gd/L"},
      {"measurement": "metal content, % Dose", "setting": "[4]; Brain", "value": 0.02, "unit": "% Dose"},
      {"measurement": "metal content", "setting": "[4]; Carcass", "value": 268, "unit": "μmol Gd/L"},
      {"measurement": "metal content, % Dose", "setting": "[4]; Carcass", "value": 37.93, "unit": "% Dose"},
      {"measurement": "metal content", "setting": "[4]; Femur", "value": 13, "unit": "μmol Gd/L"},
      {"measurement": "metal content, % Dose", "setting": "[4]; Femur", "value": 0.05, "unit": "% Dose"},
      {"measurement": "metal content", "setting": "[4]; Heart", "value": 14, "unit": "μmol Gd/L"},
      {"measurement": "metal content, % Dose", "setting": "[4]; Heart", "value": 0.02, "unit": "% Dose"},
      {"measurement": "metal content", "setting": "[4]; Intestine", "value": 113, "unit": "μmol Gd/L"},
      {"measurement": "metal content, % Dose", "setting": "[4]; Intestine", "value": 1.56, "unit": "% Dose"},
      {"measurement": "metal content", "setting": "[4]; Kidneys", "value": 436, "unit": "μmol Gd/L"},
      {"measurement": "metal content, % Dose", "setting": "[4]; Kidneys", "value": 1.77, "unit": "% Dose"},
      {"measurement": "metal content", "setting": "[4]; Liver", "value": 344, "unit": "μmol Gd/L"},
      {"measurement": "metal content, % Dose", "setting": "[4]; Liver", "value": 6.34, "unit": "% Dose"},
      {"measurement": "metal content", "setting": "[4]; Lung", "value": 62, "unit": "μmol Gd/L"},
      {"measurement": "metal content, % Dose", "setting": "[4]; Lung", "value": 0.17, "unit": "% Dose"},
      {"measurement": "metal content", "setting": "[4]; Mesenteric lymph nodes", "value": 70, "unit": "μmol Gd/L"},
      {"measurement": "metal content, % Dose", "setting": "[4]; Mesenteric lymph nodes", "value": 0.05, "unit": "% Dose"},
      {"measurement": "metal content", "setting": "[4]; Muscle", "value": 9, "unit": "μmol Gd/L"},
      {"measurement": "metal content, % Dose", "setting": "[4]; Muscle", "value": 0.02, "unit": "% Dose"},
      {"measurement": "metal content", "setting": "[4]; Pancreas", "value": 30, "unit": "μmol Gd/L"},
      {"measurement": "metal content, % Dose", "setting": "[4]; Pancreas", "value": 0.05, "unit": "% Dose"},
      {"measurement": "metal content", "setting": "[4]; Peripheral lymph nodes", "value": 44, "unit": "μmol Gd/L"},
      {"measurement": "metal content, % Dose", "setting": "[4]; Peripheral lymph nodes", "value": 0.02, "unit": "% Dose"},
      {"measurement": "metal content", "setting": "[4]; Spleen", "value": 116, "unit": "μmol Gd/L"},
      {"measurement": "metal content, % Dose", "setting": "[4]; Spleen", "value": 0.17, "unit": "% Dose"},
      {"measurement": "metal content", "setting": "[4]; Stomach", "value": 28, "unit": "μmol Gd/L"},
      {"measurement": "metal content, % Dose", "setting": "[4]; Stomach", "value": 0.08, "unit": "% Dose"},
      {"measurement": "metal content, % Dose", "setting": "[4]; Total", "value": 48.43, "unit": "% Dose"}
    ]},
    {"smiles": "CC(C(=O)NCC(=O)NCC(=O)N1CCN(C(=O)CNC(=O)CNC(=O)C(C)N2CCN(CC(=O)[O-])CCN(CC(=O)[O-])CCN(CC(=O)[O-])CC2)CCN(C(=O)COCCC(F)(F)C(F)(F)C(F)(F)C(F)(F)C(F)(F)C(F)(F)C(F)(F)C(F)(F)F)CCN(C(=O)CNC(=O)CNC(=O)C(C)N2CCN(CC(=O)[O-])CCN(CC(=O)[O-])CCN(CC(=O)[O-])CC2)CC1)N1CCN(CC(=O)[O-])CCN(CC(=O)[O-])CCN(CC(=O)[O-])CC1.[Gd+3].[Gd+3].[Gd+3]", "note": "(centres unmarked) [metal complex XIV, 1,4,7-Tris{1,4,7-tris(N-(carboxylatomethyl)-10-[N-1-methyl-3,6-diaza-2,5,8-trioxooctane-1,8-diyl]-1,4,7,10-tetraazacyclododecane, Gdcomplex}-10-N-2H,2H,4H,4H,5H,5H-3-oxa-perfluoro-tridecanoyl]-1,4,7,10-tetraazacyclo-dodecane, Gd complex]", "values": [
      {"measurement": "CMC (critical micelle formation concentration)", "setting": "[1]", "value": 0.00089, "unit": "mol/L"},
      {"measurement": "2 Rh (hydrodynamic micelle diameter)", "setting": "[2]", "value": 2.2, "unit": "nm"},
      {"measurement": "signal in the infarction area (T1-weighted spin-echo images)", "setting": "myocardial infarction; 3 hours after i.v. 100 μmol of Gd/kg", "value": "strong signal rise"},
      {"measurement": "signal in healthy lymph node tissue (T1-weighted gradient-echo images)", "setting": "iliac lymph nodes", "value": "strong signal rise"},
      {"measurement": "enhancement in the healthy lymph node tissue", "setting": "iliac lymph nodes; 10 minutes p.i.", "value": 297, "unit": "%"},
      {"measurement": "ratio of signal intensities of healthy lymph node tissue to metastasis", "setting": "iliac lymph nodes; 10 minutes p.i.", "value": 5.1},
      {"measurement": "enhancement in the healthy lymph node tissue", "setting": "iliac lymph nodes; 60 minutes p.i.", "value": 269, "unit": "%"},
      {"measurement": "ratio of signal intensities of healthy lymph node tissue to metastasis", "setting": "iliac lymph nodes; 60 minutes p.i.", "value": 1.9},
      {"measurement": "signal in zones within the lymph node diagnosed as metastases (confirmed histologically)", "setting": "iliac lymph nodes", "value": "without signal rise"},
      {"measurement": "enhancement of the primary tumor (especially the periphery)", "setting": "[3]", "value": 594, "unit": "%"},
      {"measurement": "enhancement of the primary tumor (center of the tumor)", "setting": "[3]; 120 hours p.i.", "value": 162, "unit": "%"}
    ]}
  ]
}
